From US8058437B2, “(Pyrroloquinoxalinyl) pyrazinecarbohydrazide-oxalic acid co-crystal for treatment of cancer and other diseases” (Novelix Pharmaceuticals, Inc., priority 2008, dated 2011) come the findings set out here.

The nature of the series: Salt formation experiments / physical characteristics of solid forms. The class given is physicochemical. The following applies: solid hydrochloride salt. Here is the method:
Thus, a series of experiments was conducted to assess the preparation of NVX-144 salts of acids other than hydrochloric acid as possible novel compounds better suited to pharmaceutical preparations. […] As expected, NVX-144 base readily formed salts with strong organic acids.
Although oxalic acid co-crystals are rare, Trask et al. have reported a co-crystal of caffeine with oxalic acid (see Trask et al., “Pharmaceutical Cocrystallization: Engineering a Remedy for Caffeine Hydration,” Crystal Growth & Design, 5, 1013-21 (2005)).
Thus NVX-144 would not be expected to form a salt with oxalic acid, a relatively strong dicarboxylic acid.

With `Cl.O=C(NNc1nc2cc(F)ccc2n2cccc12)c1cnccn1` [NVX-144.HCl, N′-(7-fluoropyrrolo[1,2a]quinoxalin-4-yl)pyrazine-2-carbohydrazide hydrochloride], the “physical characteristics of crystals” value is “fluffy, statically-charged, hygroscopic crystals”.
